# pKi: −log10 of the molar value.
# Biological target: Aldo-keto reductase family 1 member A1 (Bos taurus, UniProt Q3ZCJ2)
# Experiment: Inhibition of beef brain NADP-dependent aldehyde reductase using p-nitrobenzaldehyde by competitive inhibition assay
# Chain of Aldo-keto reductase family 1 member A1 (Q3ZCJ2 2-325 limits assumed): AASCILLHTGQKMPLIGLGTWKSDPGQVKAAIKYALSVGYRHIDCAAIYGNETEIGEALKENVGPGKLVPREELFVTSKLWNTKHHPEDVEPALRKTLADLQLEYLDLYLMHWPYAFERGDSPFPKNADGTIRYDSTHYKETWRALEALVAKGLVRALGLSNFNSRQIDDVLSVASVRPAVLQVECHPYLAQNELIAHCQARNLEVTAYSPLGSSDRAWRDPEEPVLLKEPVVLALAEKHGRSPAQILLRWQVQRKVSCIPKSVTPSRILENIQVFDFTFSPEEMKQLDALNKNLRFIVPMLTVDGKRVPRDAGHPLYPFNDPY
row,SMILES,pKi
1,CCC1C(O)NC(=O)C2=CN([C@@H]3O[C@H](COP(=O)(O)O[C@H]4[C@@H](O)[C@H](n5cnc6c(N)ncnc65)O[C@@H]4COP(=O)(O)OP(=O)(O)O)[C@@H](O)[C@H]3O)C=C[C@H]21 (some centres undefined),4.89
2,CCCCCCCCC1C(O)NC(=O)C2=CN([C@@H]3O[C@H](COP(=O)(O)O[C@H]4[C@@H](O)[C@H](n5cnc6c(N)ncnc65)O[C@@H]4COP(=O)(O)OP(=O)(O)O)[C@@H](O)[C@H]3O)C=C[C@H]21 (some centres undefined),5.64
3,Nc1ncnc2c1ncn2[C@@H]1O[C@H](COP(=O)(O)OP(=O)(O)O)[C@@H](OP(=O)(O)OC[C@H]2O[C@@H](N3C=C[C@@H]4C(=C3)C(=O)NC(O)C4Cc3ccccc3)[C@H](O)[C@@H]2O)[C@H]1O (some centres undefined),5.15
4,Nc1ncnc2c1ncn2[C@@H]1O[C@H](COP(=O)(O)OP(=O)(O)O)[C@@H](OP(=O)(O)OC[C@H]2O[C@@H](N3C=C[C@@H]4C(=C3)C(=O)NC(O)C4c3ccccc3)[C@H](O)[C@@H]2O)[C@H]1O (some centres undefined),5.29

# — ChEMBL document CHEMBL3244329, “Nicotinamide adenine dinucleotide phosphate-decanaldehyde adduct as an inhibitor of beef brain NADP-linked aldehyde reductase” (J Med Chem, 1979)
